{"source": "patent US20140051730A1", "about": "“THERAPEUTIC USE OF DIMIRACETAM TO PREVENT THE HAND AND FOOT SYNDROME CAUSED BY SORAFENIB” (NEUROTUNE AG, priority 2010, published 2014)", "key": {"[1]": {"tested_on": "sorafenib induced allodynia", "assay": "Acute experiment: rat cold plate test, sorafenib allodynia", "conditions": "for Acute antiallodynic efficacy on sorafenib induced allodynia (in words): single p.o. dose on day 14: dimiracetam 300, gabapentin 100, duloxetine 30 mg/kg, rat cold plate", "description": "Male Sprague Dowley adult rats (200-220 g—aged 7 weeks) were used. Groups of 4 rats were housed in 26 by 41 cm cages that were placed in the experimental room 24 h before the test for acclimatization. The animals were fed a standard laboratory diet and tap water ad libitum and kept at 23±1° C. with a 12 h light/dark cycle, light on at 7 a.m. All experiments were carried out in accordance with the European Communities Council Directive of 24 Nov. 1986 (86/609/EEC) for experimental animal care. All efforts were made to minimize the number of animals used and their suffering.\nDimiracetam, duloxetine and gabapentin were dissolved in water. Drug concentrations were adjusted to a volume of 10 ml/kg for dosing by oral administration or i.p. injection. Sorafenib was dissolved in a vehicle composed by 1% ethanol+1% Cremophor+98% saline for i.p. injection.\nControl rats were treated with an equal volume of the sorafenib vehicle. Sorafenib was administered once daily for 14 consecutive days. Dimiracetam, gabapentin and duloxetine were administered once daily on day 14 after sorafenib treatment.\nRats were placed inside a stainless steel container, thermostatically set at 4° C. in a precision water-bath from KW Mechanical Workshop, Siena, Italy. Reaction times (in seconds) were measured with a stop-watch before and at regular intervals; the endpoint used was the licking of the fore or hind paws. An arbitrary cut-off time of 60 s was adopted (see Beyreuther et al., Eur. J. Pharmacol. 565, 98-104, 2007).\nAll experimental results are given as the mean±S.E.M. An analysis of variance, ANOVA, followed by Fisher's protected least significant difference procedure for post hoc comparison, was used to verify significance between two means of behavioral results. Data were analyzed with the StatView software for the Macintosh (1992). P values≦0.05 were considered significant."}, "[2]": {"assay": "Blood levels in healthy volunteers during Phase I studies", "type": "in vivo", "conditions": "1600 bid dose (3200 mg daily)", "description": "Blood levels were determined in healthy volunteers during Phase I studies.\nThe blood levels were determined for 1600 bid dose (i.e. 3200 mg daily)."}, "[3]": {"tested_on": "sorafenib induced allodynia", "assay": "Chronic experiment: rat cold plate test, sorafenib induced allodynia", "type": "in vivo", "conditions": "for Licking latency, Before all Treatments: baseline, mean of 8 rats", "description": "1986 (86/609/EEC) for experimental animal care.\nDimiracetam, duloxetine and gabapentin were dissolved in water.\nSorafenib was dissolved in a vehicle constituted by 1% ethanol+1% Cremophor+[…]. Sorafenib was administered once daily for 14 days. Dimiracetam was administered by oral gavage twice daily for 14 days (co-administered with sorafenib).\nP values≦0.05 were considered significant."}, "[4]": {"conditions": "15 min after single p.o. dose (dimiracetam 300, gabapentin 100, duloxetine 30 mg/kg) on day 14 of sorafenib 10 mg/kg"}, "[5]": {"conditions": "30 min after single p.o. dose (dimiracetam 300, gabapentin 100, duloxetine 30 mg/kg) on day 14 of sorafenib 10 mg/kg"}, "[6]": {"conditions": "60 min after single p.o. dose (dimiracetam 300, gabapentin 100, duloxetine 30 mg/kg) on day 14 of sorafenib 10 mg/kg"}, "[7]": {"conditions": "baseline before all treatments, group later given test drug p.o. + sorafenib 10 mg/kg once daily 14 days, cold plate 4° C., mean ± S.E.M., 5 rats"}, "[8]": {"conditions": "day 14 of sorafenib 10 mg/kg, before single p.o. dose of test drug, cold plate 4° C."}}, "data": [{"smiles": "O=C1CN2C(=O)CCC2N1", "note": "(centres unmarked) [DIMIRACETAM, 2,5-dioxohexahydro-1H-pyrrolo[1,2-a]imidazole]", "values": [{"measurement": "Licking latency, 14° day 15 min", "setting": "[1]; [4]", "value": "19.8 ± 1.5", "unit": "s"}, {"measurement": "Licking latency, 14° day 30 min", "setting": "[1]; [5]", "value": "16.0 ± 1.9", "unit": "s"}, {"measurement": "Licking latency, 14° day 60 min", "setting": "[1]; [6]", "value": "15.4 ± 1.4", "unit": "s"}, {"measurement": "Licking latency, Pre test before all treatments", "setting": "[1]; [7]", "value": "26.8 ± 3.0", "unit": "s"}, {"measurement": "Licking latency, Pre test before all treatments", "setting": "[1]; baseline, group given sorafenib vehicle i.p. + dimiracetam 300 mg/kg p.o. (no sorafenib)", "value": "27.2 ± 2.8", "unit": "s"}, {"measurement": "Licking latency, 14° day Pre test", "setting": "[1]; [8]", "value": "15.8 ± 1.8", "unit": "s"}, {"measurement": "Acute antiallodynic efficacy on sorafenib induced allodynia (in words)", "setting": "[1]", "value": "statistically significant effect on sorafenib induced allodynia 15 min after administration"}, {"measurement": "Licking latency, 14° day Pre test", "setting": "[1]; vehicle i.p. 14 days (no sorafenib), before dimiracetam 300 mg/kg p.o.", "value": "28.4 ± 2.1", "unit": "s"}, {"measurement": "Licking latency, 14° day 15 min", "setting": "[1]; vehicle i.p. (no sorafenib), 15 min after dimiracetam 300 mg/kg p.o.", "value": "29.0 ± 1.9", "unit": "s"}, {"measurement": "Licking latency, 14° day 30 min", "setting": "[1]; vehicle i.p. (no sorafenib), 30 min after dimiracetam 300 mg/kg p.o.", "value": "28.2 ± 2.3", "unit": "s"}, {"measurement": "Licking latency, 14° day 60 min", "setting": "[1]; vehicle i.p. (no sorafenib), 60 min after dimiracetam 300 mg/kg p.o.", "value": "27.2 ± 3.0", "unit": "s"}, {"measurement": "Blood level, mean minimal level over 24 hours (Cmin)", "setting": "[2]", "value": 136, "unit": "µM"}, {"measurement": "Cmax", "setting": "[2]; human, blood, read-out: Blood level, mean maximal level over 24 hours (Cmax)", "value": 536, "unit": "µM"}, {"measurement": "Licking latency, Before all Treatments", "setting": "[3]; group given dimiracetam 150 mg/kg p.o. b.i.d. + sorafenib 10 mg/kg i.p. once daily 14 days", "value": "27.3 ± 1.1", "unit": "s"}, {"measurement": "Licking latency, After 14 days of treatment, 1 h", "setting": "[3]; dimiracetam 150 mg/kg p.o. b.i.d. + sorafenib 10 mg/kg i.p. 14 days, 1 h after end of treatment", "value": "23.8 ± 1.1", "unit": "s"}, {"measurement": "Licking latency, After 14 days of treatment, 4 h", "setting": "[3]; dimiracetam 150 mg/kg p.o. b.i.d. + sorafenib 10 mg/kg i.p. 14 days, 4 h after end of treatment", "value": "23.3 ± 1.1", "unit": "s"}, {"measurement": "Licking latency, After 14 days of treatment, 8 h", "setting": "[3]; dimiracetam 150 mg/kg p.o. b.i.d. + sorafenib 10 mg/kg i.p. 14 days, 8 h after end of treatment", "value": "22.8 ± 1.2", "unit": "s"}, {"measurement": "Licking latency, After 14 days of treatment, 24 h", "setting": "[3]; dimiracetam 150 mg/kg p.o. b.i.d. + sorafenib 10 mg/kg i.p. 14 days, 24 h after end of treatment", "value": "21.9 ± 1.1", "unit": "s"}, {"measurement": "Licking latency, After 14 days of treatment, 48 h", "setting": "[3]; dimiracetam 150 mg/kg p.o. b.i.d. + sorafenib 10 mg/kg i.p. 14 days, 48 h after end of treatment", "value": "19.0 ± 0.6 ^ s"}, {"measurement": "Licking latency, After 14 days of treatment, 72 h", "setting": "[3]; dimiracetam 150 mg/kg p.o. b.i.d. + sorafenib 10 mg/kg i.p. 14 days, 72 h after end of treatment", "value": "14.9 ± 0.6", "unit": "s"}, {"measurement": "Licking latency, After 14 days of treatment, Pretest", "setting": "[3]; dimiracetam 150 mg/kg p.o. b.i.d. + sorafenib 10 mg/kg i.p. 14 days, before last administration", "value": "24.3 ± 0.8", "unit": "s"}, {"measurement": "Duration of statistically significant antiallodynic effect after end of treatment", "setting": "[3]; dimiracetam 150 mg/kg p.o. b.i.d. for 14 consecutive days with sorafenib", "value": "up to 48 h"}, {"measurement": "Chronic antiallodynic effect (in words)", "setting": "[3]; dimiracetam 150 mg/kg p.o. b.i.d. for 14 consecutive days, evaluated on day 14", "value": "statistically significant antiallodynic effect"}, {"measurement": "Development of tolerance (in words)", "setting": "[3]; general statement, no data given", "value": "not to develop tolerance"}]}, {"smiles": "CNCC[C@H](Oc1cccc2ccccc12)c1cccs1", "note": "[DULOXETINE, duloxetine]", "values": [{"measurement": "Licking latency, 14° day 15 min", "setting": "[1]; [4]", "value": "14.2 ± 1.6", "unit": "s"}, {"measurement": "Licking latency, 14° day 30 min", "setting": "[1]; [5]", "value": "14.6 ± 1.5", "unit": "s"}, {"measurement": "Licking latency, 14° day 60 min", "setting": "[1]; [6]", "value": "13.4 ± 1.7", "unit": "s"}, {"measurement": "Licking latency, Pre test before all treatments", "setting": "[1]; [7]", "value": "27.8 ± 1.7", "unit": "s"}, {"measurement": "Licking latency, 14° day Pre test", "setting": "[1]; [8]", "value": "13.2 ± 1.2", "unit": "s"}, {"measurement": "Acute antiallodynic efficacy on sorafenib induced allodynia (in words)", "setting": "[1]", "value": "no significant effect"}]}, {"smiles": "NCC1(CC(=O)O)CCCCC1", "note": "[GABAPENTIN, gabapentin]", "values": [{"measurement": "Licking latency, 14° day 15 min", "setting": "[1]; [4]", "value": "13.2 ± 1.8", "unit": "s"}, {"measurement": "Licking latency, 14° day 30 min", "setting": "[1]; [5]", "value": "13.6 ± 1.2", "unit": "s"}, {"measurement": "Licking latency, 14° day 60 min", "setting": "[1]; [6]", "value": "13.8 ± 1.8", "unit": "s"}, {"measurement": "Licking latency, Pre test before all treatments", "setting": "[1]; [7]", "value": "26.8 ± 2.3", "unit": "s"}, {"measurement": "Licking latency, 14° day Pre test", "setting": "[1]; [8]", "value": "15.4 ± 2.0", "unit": "s"}, {"measurement": "Acute antiallodynic efficacy on sorafenib induced allodynia (in words)", "setting": "[1]", "value": "no significant effect"}]}, {"smiles": "CNC(=O)c1cc(Oc2ccc(NC(=O)Nc3ccc(Cl)c(C(F)(F)F)c3)cc2)ccn1", "note": "[SORAFENIB, sorafenib]", "values": [{"measurement": "Licking latency, Pre test before all treatments", "setting": "[1]; baseline, group given sorafenib 10 mg/kg i.p. + water p.o.", "value": "28.6 ± 2.1", "unit": "s"}, {"measurement": "Licking latency, 14° day 15 min", "setting": "[1]; sorafenib 10 mg/kg i.p. once daily 14 days, 15 min after water p.o.", "value": "14.0 ± 1.8", "unit": "s"}, {"measurement": "Licking latency, 14° day 30 min", "setting": "[1]; sorafenib 10 mg/kg i.p. once daily 14 days, 30 min after water p.o.", "value": "13.6 ± 1.8", "unit": "s"}, {"measurement": "Licking latency, 14° day 60 min", "setting": "[1]; sorafenib 10 mg/kg i.p. once daily 14 days, 60 min after water p.o.", "value": "14.4 ± 2.3", "unit": "s"}, {"measurement": "Licking latency, 14° day Pre test", "setting": "[1]; sorafenib 10 mg/kg i.p. once daily 14 days, before water p.o.", "value": "13.8 ± 2.0", "unit": "s"}, {"measurement": "Induction of allodynia by sorafenib (in words)", "setting": "[1]; sorafenib 10 mg/kg i.p. once daily in rats, cold plate, day 14", "value": "induced an allodynic responses to thermal stimuli"}, {"measurement": "Licking latency, Before all Treatments", "setting": "[3]; group given water + sorafenib 10 mg/kg i.p. once daily 14 days", "value": "26.9 ± 1.4", "unit": "s"}, {"measurement": "Licking latency, After 14 days of treatment, Pretest", "setting": "[3]; water + sorafenib 10 mg/kg i.p. once daily 14 days", "value": "14.8 ± 1.3", "unit": "s"}, {"measurement": "Licking latency, After 14 days of treatment, 1 h", "setting": "[3]; water + sorafenib 10 mg/kg i.p. once daily 14 days, 1 h", "value": "14.3 ± 1.4", "unit": "s"}, {"measurement": "Licking latency, After 14 days of treatment, 4 h", "setting": "[3]; water + sorafenib 10 mg/kg i.p. once daily 14 days, 4 h", "value": "15.1 ± 1.5", "unit": "s"}, {"measurement": "Licking latency, After 14 days of treatment, 8 h", "setting": "[3]; water + sorafenib 10 mg/kg i.p. once daily 14 days, 8 h", "value": "16.0 ± 1.1", "unit": "s"}, {"measurement": "Licking latency, After 14 days of treatment, 24 h", "setting": "[3]; water + sorafenib 10 mg/kg i.p. once daily 14 days, 24 h", "value": "14.0 ± 1.1", "unit": "s"}, {"measurement": "Licking latency, After 14 days of treatment, 48 h", "setting": "[3]; water + sorafenib 10 mg/kg i.p. once daily 14 days, 48 h", "value": "14.3 ± 1.2", "unit": "s"}, {"measurement": "Licking latency, After 14 days of treatment, 72 h", "setting": "[3]; water + sorafenib 10 mg/kg i.p. once daily 14 days, 72 h", "value": "15.0 ± 1.0", "unit": "s"}]}]}
